Assay results: patent US5688485A, “Radiolabelled complexes of ester-substituted diaminethiols” (The DuPont Merck Pharmaceutical Company, priority 1992, dated 1997)
Like-named read-outs stand apart in the source and are kept apart here.

Assays:
[1] = rhesus monkey, in vivo
Method: Three adult male Rhesus monkeys were used for planar scintigraphic imaging. Anesthesia was induced with ketamine and maintained with 1-2% halothane in a 70/30 mixture of nitrous oxide and oxygen.
All acquisitions were performed using a Picker Digital Dyna Camera and a Siemens MicroDELTA terminal/MAXDELTA system. A high resolution parallel-hole collimator ("HEX48") was mounted on the camera. The general static acquisition protocol was employed, using an acquisition matrix of 128 by 128 pixels, in word mode. Linearity, Z- and uniformity correction as provided for in the camera console, were employed and maintained.
To provide correction for attenuation, a transmission image of each animal was required. This had to be acquired in such a fashion as to permit the location of individual organs to be delineated from an aligned emission image. To do this, an 18-inch commercial refillable flood source (Nuclear Associates, Carle Place, N.Y.) was filled with water on a flat, horizontal surface. It was then loaded with between 20 mCi (740 Mbq) and 30 mCi (1110 Mbq) of Tc99mO4^-, and placed on a rolling cart. A Picker high-resolution collimator was then placed atop the source and the cart positioned under the patient examination table of the camera.
For each animal, a transmission image was acquired immediately prior to the control study injection, in the following fashion: An initial "flood" image was taken of the collimated source with neither the animal nor the examination table in place. Without moving anything else, the examination table, with the anesthetized animal, was placed between the source and the camera. Images were then taken of both the upper and lower portions of the body using a 128×128 pixel matrix in word mode. Table positioning was restricted by the track system so that positioning markers were necessary only for the dimension parallel to the animal's vertical axis.
Without moving the camera, the source was withdrawn and removed from the room. Adjustments to the camera-subject distance were made only by raising or lowering the table. The control compound was then injected and the control study begun. In this way, organs could be identified from the control study and the regions applied to the transmission study to determine attenuation correction factors on a per-organ basis. In addition, an "efficiency" factor was determined from images taken of a small flask containing a measured amount of radioactivity.
Following the injection of Tc-99m labeled materials, images were acquired of each animal using "spot" views over the upper and lower portions of the body with conjugate views (i.e. 180-degree opposed views) for each.
The resulting image data was analyzed by creating regions of interest (ROI's) for each organ and determining the sum of the recorded gamma photons for each organ in each view. From the transmission view, an attenuation correction factor was derived for each organ and the activity in the organ determined by taking the square root of the product of the ROI sums for conjugate views of the organ and then multiplying by the attenuation correction factor for that organ and then by the efficiency factor.
Each animal was imaged with Tc-99m-(L,L)-N,N'-1,2-ethylenediylbiscysteine, diethyl ester in order to serve as its own control. One test isomer was then administered to each of the monkeys. Frequent blood samples were drawn from a peripheral leg vein. Regions of interest were drawn around all pertinent organs and time-activity curves were constructed.

[2] = in words; cited from earlier work
[3] = cited from earlier work

Compound | Biodistribution: Brain ([1]; 30 min) | Biodistribution: Gall Bladder ([1]; 30 min) | Biodistribution: Urinary Bladder ([1]; 30 min) | Biodistribution: Brain ([1]; 60 min) | Biodistribution: Gall Bladder ([1]; 60 min) | Biodistribution: Urinary Bladder ([1]; 60 min) | Route / rate of renal elimination ([3]; in words) | also measured
anti-Tc-99m-(D,L)-N,N'-1,2-ethylenediylbiscysteine, diethyl ester [Example 3] | 2.1 percentage of the initial inje | 2.7 percentage of the initial inje | 4.2 percentage of the initial inje | 1.8 percentage of the initial inje | 6.4 percentage of the initial inje | 4.0 percentage of the initial inje |  | 
O=C(O)CNC(=O)c1ccccc1[131I] [Example I-131-OIH, I-131-o-iodohippurate] |  |  |  |  |  |  | rapidly removed from the blood by active tubular secretion | radiation burden to the patient [2]: significant radiation burden to the patient; renal extraction efficiency ([3]; in vivo): 65-80%
syn-Tc-99m-(D,L)-N,N'-1,2-ethylenediylbiscysteine, diethyl ester [Example 2] | 3.4 percentage of the initial inje | 2.2 percentage of the initial inje | 58 percentage of the initial inje | 3.0 percentage of the initial inje | 6.2 percentage of the initial inje | 74 percentage of the initial inje |  | Renal excretion [1]: most rapidly excreted; Uptake in other organs / liver activity [1]: low uptake in other organs, especially the gall bladder
Tc-99m-diethylenetriamine pentaacetic acid [Tc-99m-DTPA] |  |  |  |  |  |  | eliminated entirely or nearly entirely by glomerular filtration | maximum extraction efficiency ([3]; in vivo): 20-25%
Tc-99m-(L,L)-N,N'-1,2-ethylenediylbiscysteine, diethyl ester [Example 4] | 5.8 percentage of the initial inje | 10 percentage of the initial inje | 29 percentage of the initial inje | 5.6 percentage of the initial inje | 17 percentage of the initial inje | 42 percentage of the initial inje |  | 
Tc-99m-(D,D)-N,N'-1,2-ethylenediylbiscysteine, diethyl ester [Example 5] | 1.7 percentage of the initial inje | 5.5 percentage of the initial inje | 5.0 percentage of the initial inje | 1.4 percentage of the initial inje | 5.2 percentage of the initial inje | 15 percentage of the initial inje |  | 
Nc1ccc(C(=O)NCC(=O)O)cc1 [PAH, p-aminohippuric acid] |  |  |  |  |  |  |  | removed from the plasma by active secretion into the tubules ([3]; in vivo): approximately 70%
Tc-99m-mercaptoacetyltriglycine [Tc-99m-MAG3] |  |  |  |  |  |  | secreted by the kidneys selectively by tubular secretion and approximately as rapidly as OIH | organ specificity ([3]; in words): less than desired
O=C(O)CNC(=O)c1ccccc1[123I] [Example I-123-OIH] |  |  |  |  |  |  |  | radiation burden to the patient [2]: much lower radiation burden to the patient
